Data as given in patent publication US6149948A, “Method of decreasing plasma cholesterol and triglycerides with a chromium-containing complex” (University of Alabama, priority 1999, dated 2000).

Tests used:
[1] = test system: rats; settings: up to 1500 μg/kg diet for up to 24 weeks; cited from earlier work
[2] = test system: cultured Chinese hamster ovary cells; settings: cited from earlier work
[3] = test system: pUC19 plasmid DNA; settings: cited from earlier work
[4] = test system: male Sprague Dawley rats; experiment: 12-week chromium supplementation of rats: body and tissue masses, toxic effects
Protocol: (§1) Four week old male Sprague Dawley rats were allowed to fed ad libitum on a commercial rat food and tap water. Rats were raised in standard plastic and stainless steel cages on a 12 hour light-dark cycle. Solid food intake and body mass were monitored daily. Twenty four rats were divided randomly into three groups of eight. […] The last group was injected with 200 μL of doubly deionized water daily and served as the control. After 12 weeks, the animals were sacrificed by carbon dioxide asphyxiation. Liver, kidney, heart, pancreas, testes, and epididymal fat were quickly harvested and weighed. Liver and kidney were placed into plastic screw-top containers and stored at -80° C. for further analysis.

[5] = test system: male Sprague Dawley rats; experiment: Plasma variables after 4, 8 and 12 weeks of supplementation; assay type: in vivo, rat
Protocol: Solid food intake and body mass were monitored daily.
Blood was collected from the tail after four, eight, and twelve weeks of Cr or H2 O administration. Prior to blood collection, animals were fasted 12 to 15 hours.
Immediately after blood removal, 0.5 mg/mL heparin and 10 mg/mL NaF were added to the blood. Blood was next immediately centrifuged; the blood plasma was tested for glucose, total cholesterol, triglycerides, low density lipoprotein (LDL) cholesterol (week 12 only), and high density lipoprotein (HDL) cholesterol (week 12 only) using Diagnostic Kits from Sigma Chemical Co. (St. Louis, Mo.) and insulin using double antibody or antibody coated kits from ICN Biomedicals (Costa Mesa, Calif.).
Statistical analyses were performed by analysis of variance. All values are presented as mean±SEM. P values are calculated using standard deviations.

[6] = test system: insulin-activated insulin receptor; settings: cited from earlier work
[7] = test system: male Sprague Dawley rats; settings: rat, in vivo
Protocol: as §1

[8] = test system: DH5α E. coli cells; settings: DNA incubated 3 hrs with complex and peroxide; ampicillin plates
Protocol: A reaction mixture containing 10 μg of pUC19, 1.5 mM 1, and 0.900 mM H2 O in 10 mM Tris, pH 8.0 was allowed to react for 3 hours at 25° C. Quench buffer was added, and the sample was immediately loaded onto a 1% agarose gel containing 0.5 μg ml^-1 of ethidium bromide. After electrophoresis in 1×TBE buffer, the band at 3.5 kB was excised from the gel, and the DNA was removed from the gel using a Qiagen gel purification kit. The eluted DNA was gel-quantitated and used without further modification for transformation.
Electrocompetent DH5α E. coli cells were electroporated using 1 μL of 0.1 μg mL^-1 of either trimer-nicked DNA or supercoiled pUC19 plasmid DNA in 50 μL of cells. The E. coli cells were rescued by adding 1 mL of SOC media (20 gL^-1 Bactotryptone, 5 gL^-1 yeast extract, 9 mM NaCl, 20 mM glucose, pH 7.5), followed by incubation at 37° C. for 1 hour. Each cell suspension was diluted 1:100 with SOC media, and 50 μL of each diluted suspension was spread on separate LB-ANM agar plates containing 80 μg mL^-1 X-gal, 100 μM IPTG, and 100 μg mL^-1 ampicillin. The X-gal and IPTG were added to facilitate detection of colonies. The plates were placed in a 37° C. incubator overnight.

[9] = test system: pUC19 plasmid DNA
Protocol: The reactions contain pUC19 (39 μM in base pairs) and 50 μM phosphate buffer, pH 7.0, and: Lane 2, 5 MM ascorbate; Lanes 3-7, 5 mM ascorbate and 120, 40, 4.0, 0.40, and 0.040 μM 1, respectively; Lane 8, 5 mM ascorbate and 1.2 μM Cr(pic)3 ; Lane 9, 5 mM ascorbate and 120 pM 1 under argon; Lane 10, 5 mM ascorbate, 120 μM 1, and 1 M EtOH; Lane 11, 5 mM ascorbate, 120 μM 1, and 1 M t-BuOH; Lane 12, 5 mM ascorbate, 120 μM 1, and 100 μg/mL SOD; and Lane 13, 5 mM ascorbate, 120 μl , and 100 μ/mL catalase. Reactions were allowed to proceed 60 minutes before quenching.
A typical reaction was carried out mixing aliquots of pUC19 (in 5 μM Tris, 500 EDTA buffer (pH 8.0)), reductant in H2 O, LMWCr in 50 mM NH4 OAc (pH 6.5) or 1 in H2 O, phosphate buffer (pH 7.0), and H2 O to give a final volume of 15 μL; the final phosphate concentration was 50 mM. Inhibitors were added as solutions in H2 O, solutions in phosphate buffer, or as neat liquids. Reactions were allowed to proceed 180 minutes unless otherwise noted. All reactions were quenched by addition of loading buffer (24% glycerol and 0.1% bromophenol blue). Seven microliter aliquots were loaded directly onto a 1% agarose gel and electrophoresed at 60 V. The gel was stained with ethidium bromide and was photographed on a UV transilluminator. […]

[10] = plasma, Week 4, fasted rats, 20 μg Cr/kg daily i.v., mean ± SEM
[11] = plasma, Week 8, fasted rats, 20 μg Cr/kg daily i.v., mean ± SEM
[12] = plasma, Week 12, fasted rats, 20 μg Cr/kg daily i.v., mean ± SEM

## chromium(III) tris(picolinate) [Cr(pic)3]
[1]
  acute toxic effects: no acute toxic effects
[2]
  DNA strand breaks: lead to DNA strand breaks

## CCC(=O)[O-].CCC(=O)[O-].CCC(=O)[O-].CCC(=O)[O-].CCC(=O)[O-].CCC(=O)[O-].O.O.O.[Cr+3].[Cr+3].[Cr+3].[O-2] [Compound 1, [Cr3 O(O2 CCH2 CH3)6 (H2 O)3]^+]
[3]
  DNA cleavage (literature): not to lead to DNA cleavage
[4]; 12 weeks, 20 μg Cr/kg daily i.v.
  toxic effects of supplementation: no toxic effects were observed
[4]; after 12 weeks, daily tail vein injection, 20 μg Cr per kg body mass, mean ± SEM, eight rats
  Tissue mass, Epididymal fat: 4.44 + 0.45 grams
[5]; [10]
  Glucose: 168 ± 33 mg/dL
  Insulin: 99.0 ± 3.2 μIU/mL
  Total cholesterol: 65.2 ± 3.4 mg/dL
  Triglycerides: 83.3 ± 2.7 mg/dL
[5]; [11]
  Glucose: 75.5 ± 2.9 mg/dL
  Insulin: 43.3 ± 2.1 μIU/mL
  Total cholesterol: 63.8 ± 3.3 mg/dL
[5]; [12]
  Glucose: 68.2 ± 2.8 mg/dL
  HDL cholesterol: 10.7 ± 0.65 mg/dL
  Insulin: 43.0 ± 1.9 μIU/mL
  LDL cholesterol: 25.6 ± 2.4 mg/dL
  Total cholesterol: 46.9 ± 2.8 mg/dL
  Triglycerides: 53.2 ± 3.7 mg/dL
[5]; week 12
  LDL cholesterol concentration less than that of the control: ~40%
  total cholesterol concentration less than that of the control: 33%
[6]
  stimulation of insulin receptor tyrosine kinase activity: mimic the ability of LMWCr to stimulate insulin receptor kinase activity
[7]
  iron concentration of liver: 6.0×10^2 μg/g dry mass
[8]
  colonies of E. coli transformed with complex-nicked pUC19 versus supercoiled pUC19: the same number of colonies
[9]
  DNA cleavage in the presence of dithiothreitol: does not increase the amount of cleavage

## CC(=O)[O-].CC(=O)[O-].CC(=O)[O-].CC(=O)[O-].CC(=O)[O-].CC(=O)[O-].O.O.O.[Cr+3].[Cr+3].[Cr+3].[O-2] [acetate analogue of 1, [Cr3 O(OAc)6 (H2 O)3]^+, reference compound]
[3]; Cr(pic)3: 120 nM chromium, 5 mM ascorbic acid or thiols, acetate analogue: ascorbate
  DNA cleavage in the presence of biological reductants (literature): unable to catalyze DNA cleavage in the presence of ascorbate
